Reference: US20110195427A1, “SYSTEMS AND METHODS FOR DETECTING PREGNANCY” (priority 2010, published 2011)
Several values for one entry are separate records, joined by “and”; a condition that tells them apart may be missing. Equal entries are not always repeated. Where two headings read alike, the source gives them in different places.

T1: α-amylase (Homo sapiens, UniProt P0DUB6)
T1 sequence (P0DUB6 16-511): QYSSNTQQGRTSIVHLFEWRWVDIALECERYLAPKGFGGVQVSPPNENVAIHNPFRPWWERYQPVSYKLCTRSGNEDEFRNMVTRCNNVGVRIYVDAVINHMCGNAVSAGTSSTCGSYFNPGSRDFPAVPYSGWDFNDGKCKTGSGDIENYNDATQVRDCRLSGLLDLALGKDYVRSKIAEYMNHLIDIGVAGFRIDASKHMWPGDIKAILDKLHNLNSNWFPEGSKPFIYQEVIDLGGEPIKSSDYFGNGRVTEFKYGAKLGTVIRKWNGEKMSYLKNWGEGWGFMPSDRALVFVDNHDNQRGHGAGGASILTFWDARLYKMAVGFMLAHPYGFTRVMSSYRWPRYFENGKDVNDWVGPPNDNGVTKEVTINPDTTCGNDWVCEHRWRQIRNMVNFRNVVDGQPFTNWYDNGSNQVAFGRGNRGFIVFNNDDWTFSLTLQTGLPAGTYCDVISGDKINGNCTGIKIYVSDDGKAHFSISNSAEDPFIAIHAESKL

B1: Soybeans: primary soybean protease inhibitor, 20.7-22.3 kDa (protein, UniProt P01070 25-205, looked up)
Trypsin inhibitor A: DFVLDNEGNPLENGGTYYILSDITAFGGIRAAPTGNERCPLTVVQSRNELDKGIGTIISSPYRIRFIAEGHPLSLKFDSFAVIMLCVGIPTEWSVVEDLPEGPAVKIGENKDAMDGWFRLERVSDDEFNNYKLVFCPQQAEDDKCGDIGISIDHDDGTRRLVVSKNKPLVVQFQKLDKESL

Experiments:
[1] = tested on: peroxidase; assay: Peroxidase assay in saliva (Amplex Red); type: biochemical
Experimental: To determine the effect of various GRAS compounds as inhibitors of peroxidase activity, a standard assay using Amplex® Red (Life Technologies), which releases a fluorescent oxidation product.
The test compounds, such as GRAS materials or cocktails of same, were prepared at a concentration of 500 ppm in distilled water. For the assay, 50 μl samples of test compounds were mixed with 20-30 μl of saliva (either “pooled” or “unpooled”) prior to the addition of Amplex® Red. […] Reactions were allowed to run for 30 minutes during these assays.

[2] = molecular target: T1, α-amylase; assay: α-Amylase inhibition saliva screening (chromogenic substrate, 405 nm); type: biochemical; conditions: for Ave (absorbance at 405 nm): average of 4 readings; for absorbance at 405 nm, single reading: test compound prepared at 5,000 ppm, 37° C.
Excerpt: Further details of these five compounds may also be seen in Table 4.

[3] = tested on: protease; conditions: natural protease inhibitors; cited from earlier work
[4] = 500 ppm, pooled and unpooled saliva controls, 30 minutes, FIGS. 26-29

Row | Molecule | Ave (absorbance at 405 nm) ([2]; Time 0 min) | Ave (absorbance at 405 nm) ([2]; Time 5 min) | Ave (absorbance at 405 nm) ([2]; Time 15 min) | peroxidase inhibition [1, 4] | other results
1 | O=C(O)c1ccccc1 [CDI #16, Benzoic acid] | – | – | – | – | peroxidase inhibition [1]: showed significant peroxidase inhibition capabilities
2 | Aluminum sulfate hydrate [CDI-34] | 0.40 | 0.50 | 0.56 | – | absorbance at 405 nm, single reading ([2]; Time 0 min, sulfate hydrate): 0.40 and 0.36 and 0.45; absorbance at 405 nm, single reading ([2]; Time 5 min, sulfate hydrate): 0.49 and 0.50 and 0.52; absorbance at 405 nm, single reading ([2]; Time 15 min, sulfate hydrate): 0.53 and 0.61 and 0.54 and 0.56
3 | Cn1c(=O)c2c(ncn2C)n(C)c1=O [CDI #33, Caffeine] | – | – | – | showed significant peroxidase inhibition capabilities | –
4 | COc1ccc(O)c(C(C)(C)C)c1 [CDI-039, 3-tert--butyl-hydroxyanisole] | – | – | – | showed significant peroxidase inhibition capabilities | –
5 | Aluminum potassium sulfate dodecahydrate [CDI-42] | 0.92 | 1.85 | 2.29 | showed significant peroxidase inhibition capabilities | absorbance at 405 nm, single reading ([2]; Time 0 min): 0.80 and 1.13 and 0.90 and 0.84; absorbance at 405 nm, single reading ([2]; Time 5 min): 1.65 and 2.15 and 1.80 and 1.81; absorbance at 405 nm, single reading ([2]; Time 15 min): 2.37 and 2.38 and 2.25 and 2.17
6 | B1 | – | – | – | – | Inhibitory power [3]: 1.2 times times weight
